Source: US10538571B2, “Compositions and methods for neurological diseases” (Coda Biotherapeutics, Inc., priority 2017, dated 2020)

Experiments:
[1] = target: T1, engineered chimeric LGIC receptor SEQ ID NO:41 (Homo sapiens, UniProt P36544, F159M/H163T/I152M/K68T/N69T/Q70M/R155K/V154L/W156N/Y151P); assay: Plate reader YFP quench plots; format: cell-based; conditions: FIG. 7
T1 construct: expressed in transfected cells; host or cells: Lenti-X 293T cells stably expressing YFP (H148Q/I152L) reporter; pcDNA3.1(+) plasmid
Procedure: Lenti-X 293T cells (LX293T, Clontech) were maintained in DMEM containing 10% FBS and 1% penicillin/streptomycin (Invitrogen). […] The next day, the cells were transiently transfected with 0.1 μg of DNA per well using standard Fugene protocol (Promega). On the day of assay, cells were washed 2 times in 1× extracellular solution (1×ECS: 140 mM NaCl, 5 mM KCl, 1 mM MgCl2, 2 mM CaCl2, 10 mM HEPES, 10 mM glucose, pH 7.2, mOsms 300). After the last wash, 100 μL of 1×ECS was added to the wells and the plate was incubated at 37° C. for 30 min. While incubating the plate, the drugs were diluted to a 2× concentration in 1×ECS-NaI (same components as 1×ECS except the 140 mM NaCl was replaced by 140 mM NaI). The plates were then read on a Flexstation3 (Molecular Devices). Each well, 8 wells at a time, of the plate is read for 2 min using a Flexstation3 (Molecular Devices) as follows: 1) a baseline YFP fluorescence is read for 17 sec, 2) 100 μL of ligand is added, and 3) the changes in YFP fluorescence are then measured every 1.3 sec for the remaining time.
To further tune the responsiveness of the engineered LGIC receptors to native and non-native ligands, the binding pocket of each ligand in the alpha7-nAChR was modeled and the amino acid residues that form the binding pocket were mapped. […]

[2] = test system: spared nerve injury (SNI) model; assay: Spared nerve injury (SNI) model of neuropathic pain, mechanical withdrawal threshold (von Frey, up-down method) after AAV.hSYN-α7-nAChR/GlyRα1 injection; format: in vivo, rat; conditions: for reversal of mechanical hypersensitivity: single IP injection
Text: Eight expression cassettes are constructed using standard molecular biology techniques. All contain a human synapsin-1 (hSYN) promoter linked to engineered chimeric receptors comprising a ligand binding domain of α7-nAChR and a Cys-loop domain and ion pore domain of GlyRα1. Their design is as follows:
These cassettes are subcloned into AAV bacmids, purified, transfected into Sf9 insect cells to produce recombinant bacuvlovirus, and then amplified. Sf9 cells are double infected using the amplified recombinant baculovirus containing the hSYN-α7-nAChR/GlyRα1 cassettes and another recombinant baculovirus containing the Rep and AAV6(Y705+731F+T492V) Cap genes to produce recombinant AAV vectors. The viral vectors are purified, viral titer determined using qPCR, and SDS-PAGE used to verify the purity of AAV vectors.
To produce mechanical hypersensitivity in a model that mimics a neuropathic pain condition, the spared nerve injury (SNI) model (a validated model of mechanical allodynia) is used (Shields et al., 2003, The Journal of Pain, 4, 465-470). This model is produced by the sectioning of the common peroneal and the sural nerves and isolating the tibial branch. Mechanical withdrawal threshold is assessed by placing rats on an elevated wire-mesh grid and stimulating the plantar surface of the hind paw with von Frey filaments.
A dorsal hemilaminectomy is made at the level of the lumbar enlargement to expose two segments (about 1.5-2 mm) of lumbar spinal cord, after which the dura mater is incised and reflected. The viral solution is loaded into a glass micropipette (prefilled with mineral oil). The micropipette is connected to a manual micro-injector mounted on a stereotactic apparatus. The viral solution is targeted to the dorsal horn (left side). Along the rostro-caudal axis within the exposed region, 6 injections of 240 nl each are performed, in an equidistant linear fashion. After each injection, 1 min of resting time is observed and then the muscle layer is sutured, the skin closed with staples, and the animals were allowed to recover with heated-pad before they were returned to their home cages. Animals are perfused for histological analysis after the last behavior test.
The injection is performed with a borosilicate glass capillary (0.78/1 mm internal/external diameters) pulled to a fine point, attached by polyethylene tubing (0.4/0.8 mm internal/external diameters) to a syringe mounted in a microinjection pump. The needle is mounted on an extended arm of a stereotaxic frame swung to the outside (used to hold and manipulate the needle only). Tubing, syringe, and needle are all filled with water. One microliter air is taken up into the needle followed by 3 μL of the viral vector solution. The needle is loaded separately with this volume for each injection. Animals are anesthetized prior to surgery. Following an incision along the dorsal midline, the L4 and L5 DRG are exposed by removal of the lateral processes of the vertebrae. The epineurium lying over the DRG is opened, and the glass needle inserted into the ganglion, to a depth of 400 μm from the surface of the exposed ganglion. After a 3-minute delay to allow sealing of the tissue around the glass capillary tip, 1.1 μL virus solution was injected at a rate of 0.2 μL/minute. After a further delay of 2 minutes, the needle is removed. The L4 ganglion is injected first followed by the L5 ganglion. The muscles overlying the spinal cord are loosely sutured together with a 5-0 suture and the wound closed. Animals are allowed to recover at 37° C. and received postoperative analgesia.
Rats are first anesthetized and then placed vertically with their head fixed in a stereotaxic frame. An incision is made in the base of the neck to expose the groove in the nuchal crest. An incision is made (1-2 mm) in the cisternal membrane to a depth such that cerebrospinal fluid leaks out. […]

T1 sequence (P36544 with tags, fused parts or gaps K68T/N69T/Q70M/Y151P/I152M/V154L/R155K/W156N/F159M/H163T): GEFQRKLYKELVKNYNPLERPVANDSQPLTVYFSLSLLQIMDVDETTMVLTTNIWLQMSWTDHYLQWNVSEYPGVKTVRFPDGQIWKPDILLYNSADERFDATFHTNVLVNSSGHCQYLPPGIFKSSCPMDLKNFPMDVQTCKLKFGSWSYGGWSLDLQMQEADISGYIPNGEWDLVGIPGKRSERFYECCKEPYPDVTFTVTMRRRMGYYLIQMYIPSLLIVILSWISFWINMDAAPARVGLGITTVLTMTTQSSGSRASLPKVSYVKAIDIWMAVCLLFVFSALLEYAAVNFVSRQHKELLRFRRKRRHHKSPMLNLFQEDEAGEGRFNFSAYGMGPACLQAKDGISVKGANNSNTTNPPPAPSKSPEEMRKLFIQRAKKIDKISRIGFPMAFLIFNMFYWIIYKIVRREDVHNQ

c1cnc2c(c1)C[C@@]1(CN3CCC1CC3)O2 [AZD-0328]
response of Chimera #41 compared with Chimera #33 [1]: responds to lower doses | duration of the reversal of mechanical hypersensitivity ([2]; after single IP injection): at least 2 days | effect on mechanical threshold in the absence of vector ([2]; contralateral side): no measurable effect | mechanical thresholds after second IP injection ([2]; injected again on the third day, followed for 48 hours): recovery to non-injury baseline thresholds | reversal of mechanical hypersensitivity ([2]; high dose of ligand, all rats (Chimera 1-8)): complete reversal | reversal of mechanical hypersensitivity ([2]; low dose, rats receiving Chimera 1, 2, 4, 5, 6 and 8): complete reversal | reversal of mechanical hypersensitivity ([2]; low dose, rats receiving Chimera 3 and 7): partial reversal
